According to ChEMBL document CHEMBL5465560, “Selectivity Literature for EUbOPEN Chemogenomic Library” (2024):

Assays:
[1] = target: Mitogen-activated protein kinase 4 (Homo sapiens) (UniProt P31152); assay: Selectivity interaction (KinomeScan (DiscoverX)) EUB0000655a MAPK4; conditions: at 10 µM
[2] = target: T1, Tyrosine-protein kinase JAK3 (Homo sapiens) (UniProt P52333); assay: Selectivity interaction (Kinase panel (Z-LYTE Assay)) EUB0001632a JAK3; conditions: at 10 µM
T1 sequence (whole entry): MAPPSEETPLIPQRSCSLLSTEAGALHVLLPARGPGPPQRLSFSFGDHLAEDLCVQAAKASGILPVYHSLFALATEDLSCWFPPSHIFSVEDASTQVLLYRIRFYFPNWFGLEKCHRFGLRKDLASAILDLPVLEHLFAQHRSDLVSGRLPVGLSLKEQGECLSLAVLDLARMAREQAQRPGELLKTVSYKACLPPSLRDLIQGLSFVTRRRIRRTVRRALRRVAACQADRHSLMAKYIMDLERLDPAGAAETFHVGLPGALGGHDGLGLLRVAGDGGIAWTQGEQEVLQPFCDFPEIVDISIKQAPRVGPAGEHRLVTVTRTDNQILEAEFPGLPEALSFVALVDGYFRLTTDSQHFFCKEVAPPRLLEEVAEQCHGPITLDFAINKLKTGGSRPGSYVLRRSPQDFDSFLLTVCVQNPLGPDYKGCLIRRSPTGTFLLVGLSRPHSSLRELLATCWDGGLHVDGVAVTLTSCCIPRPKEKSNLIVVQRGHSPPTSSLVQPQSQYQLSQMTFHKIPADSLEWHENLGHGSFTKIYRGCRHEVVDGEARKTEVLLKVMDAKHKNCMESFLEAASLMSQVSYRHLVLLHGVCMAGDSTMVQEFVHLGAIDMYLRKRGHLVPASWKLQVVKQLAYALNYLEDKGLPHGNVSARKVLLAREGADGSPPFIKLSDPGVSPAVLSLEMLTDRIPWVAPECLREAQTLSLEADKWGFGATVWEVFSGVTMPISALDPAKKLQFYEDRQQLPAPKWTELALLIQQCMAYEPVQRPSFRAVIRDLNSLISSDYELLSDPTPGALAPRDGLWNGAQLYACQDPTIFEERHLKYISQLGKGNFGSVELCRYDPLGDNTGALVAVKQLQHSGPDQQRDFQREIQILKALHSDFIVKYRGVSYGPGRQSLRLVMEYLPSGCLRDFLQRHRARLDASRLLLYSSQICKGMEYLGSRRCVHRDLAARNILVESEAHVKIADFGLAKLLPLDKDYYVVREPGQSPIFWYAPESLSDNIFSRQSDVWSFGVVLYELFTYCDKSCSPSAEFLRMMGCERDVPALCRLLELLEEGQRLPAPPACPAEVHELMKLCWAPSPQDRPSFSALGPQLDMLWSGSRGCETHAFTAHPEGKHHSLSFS

[3] = target: Serine/threonine-protein kinase 10 (Homo sapiens) (UniProt O94804); assay: Selectivity interaction (ActivX KiNativ screen (kinase selectivity in THP-1 cell lysates)) EUB0000639a STK10; type: subcellular; conditions: lysate, at 1 µM
Sequence of Serine/threonine-protein kinase 10 (Homo sapiens) (O94804 whole entry, looked up): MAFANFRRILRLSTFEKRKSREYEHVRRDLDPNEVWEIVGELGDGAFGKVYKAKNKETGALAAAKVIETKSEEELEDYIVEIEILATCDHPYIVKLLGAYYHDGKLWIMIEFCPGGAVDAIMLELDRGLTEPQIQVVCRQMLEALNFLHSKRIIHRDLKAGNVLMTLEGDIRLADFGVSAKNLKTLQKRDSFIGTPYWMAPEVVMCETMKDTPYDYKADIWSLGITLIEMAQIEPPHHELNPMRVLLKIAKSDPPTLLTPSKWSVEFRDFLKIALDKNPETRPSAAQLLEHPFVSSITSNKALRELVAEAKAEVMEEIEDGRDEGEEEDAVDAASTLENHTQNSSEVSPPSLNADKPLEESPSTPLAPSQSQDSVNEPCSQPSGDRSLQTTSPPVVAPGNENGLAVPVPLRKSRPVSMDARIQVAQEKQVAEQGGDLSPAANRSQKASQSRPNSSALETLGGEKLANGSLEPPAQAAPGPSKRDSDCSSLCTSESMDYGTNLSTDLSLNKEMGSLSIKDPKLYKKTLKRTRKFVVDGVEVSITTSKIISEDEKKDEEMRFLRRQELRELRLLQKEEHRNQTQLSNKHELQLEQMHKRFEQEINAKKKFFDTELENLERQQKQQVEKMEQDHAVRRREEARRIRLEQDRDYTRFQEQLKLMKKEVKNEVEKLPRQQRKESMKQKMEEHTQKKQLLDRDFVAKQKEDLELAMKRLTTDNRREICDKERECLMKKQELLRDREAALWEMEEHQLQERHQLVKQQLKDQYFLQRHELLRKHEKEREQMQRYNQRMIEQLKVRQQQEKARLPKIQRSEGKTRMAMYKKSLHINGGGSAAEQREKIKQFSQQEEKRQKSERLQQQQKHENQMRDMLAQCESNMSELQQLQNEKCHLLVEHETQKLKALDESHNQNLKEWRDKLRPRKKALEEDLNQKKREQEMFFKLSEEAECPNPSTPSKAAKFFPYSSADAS

[4] = target: T2, Dual specificity mitogen-activated protein kinase kinase 5 (Homo sapiens) (UniProt Q13163); assay: Selectivity interaction (KinomeScan (DiscoverX)) EUB0001049a MAP2K5; conditions: at 1 µM
T2 sequence (whole entry): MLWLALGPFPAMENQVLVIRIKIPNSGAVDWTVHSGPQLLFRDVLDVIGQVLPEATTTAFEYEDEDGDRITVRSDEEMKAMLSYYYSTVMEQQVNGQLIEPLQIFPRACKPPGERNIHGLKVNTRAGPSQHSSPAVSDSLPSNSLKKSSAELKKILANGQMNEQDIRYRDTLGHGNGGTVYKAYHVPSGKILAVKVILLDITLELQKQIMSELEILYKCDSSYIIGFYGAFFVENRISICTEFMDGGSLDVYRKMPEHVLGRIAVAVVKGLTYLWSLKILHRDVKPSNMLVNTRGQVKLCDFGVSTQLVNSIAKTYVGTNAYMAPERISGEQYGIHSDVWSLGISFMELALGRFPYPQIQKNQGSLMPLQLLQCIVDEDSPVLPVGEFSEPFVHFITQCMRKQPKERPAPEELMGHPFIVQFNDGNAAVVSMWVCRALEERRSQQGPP

[5] = target: Casein kinase I isoform epsilon (Homo sapiens, UniProt P49674); assay: Selectivity interaction (KinomeScan (DiscoverX)) EUB0000045b CSNK1E
Sequence of Casein kinase I isoform epsilon (P49674 whole entry, looked up, canonical isoform): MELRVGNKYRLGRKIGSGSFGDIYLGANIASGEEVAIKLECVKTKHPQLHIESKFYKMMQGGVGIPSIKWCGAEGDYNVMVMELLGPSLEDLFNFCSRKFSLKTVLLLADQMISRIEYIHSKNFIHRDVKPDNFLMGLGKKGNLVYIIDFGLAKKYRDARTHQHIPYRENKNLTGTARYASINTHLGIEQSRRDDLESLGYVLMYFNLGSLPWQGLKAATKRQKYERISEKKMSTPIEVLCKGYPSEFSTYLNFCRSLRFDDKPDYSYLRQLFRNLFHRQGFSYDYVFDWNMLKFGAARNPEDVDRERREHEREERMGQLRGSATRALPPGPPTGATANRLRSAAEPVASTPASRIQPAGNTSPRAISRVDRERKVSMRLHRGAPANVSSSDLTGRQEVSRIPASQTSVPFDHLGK

[6] = target: T1, Tyrosine-protein kinase JAK3 (Homo sapiens); assay: Selectivity interaction (KinomeScan (DiscoverX)) EUB0000618a JAK3; conditions: at 10 µM
Vasopressin V2 receptor = Vasopressin V2 receptor (Homo sapiens, UniProt P30518); assay: Selectivity interaction (Eurofins CEREP Diversity Profile (receptors and ion channels)) EUB0000279b AVPR2; conditions: at 10 µM
Sequence of Vasopressin V2 receptor (P30518 whole entry): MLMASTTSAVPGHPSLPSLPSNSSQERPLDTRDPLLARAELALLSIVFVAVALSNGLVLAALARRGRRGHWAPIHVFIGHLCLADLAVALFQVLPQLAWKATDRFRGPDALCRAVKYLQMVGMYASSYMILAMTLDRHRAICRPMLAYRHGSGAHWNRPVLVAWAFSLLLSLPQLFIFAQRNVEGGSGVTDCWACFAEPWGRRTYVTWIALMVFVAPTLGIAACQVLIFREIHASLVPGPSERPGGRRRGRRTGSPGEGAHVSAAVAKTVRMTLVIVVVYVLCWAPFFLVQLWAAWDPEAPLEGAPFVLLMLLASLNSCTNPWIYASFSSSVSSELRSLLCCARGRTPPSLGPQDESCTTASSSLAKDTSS

[7] = target: Ribosomal protein S6 kinase alpha-4 (Homo sapiens) (UniProt O75676); assay: Selectivity interaction (Ambit KINOMEscan and KiNATiv profiling in Jurkat cells) EUB0000090b RPS6KA4; type: cell-based; conditions: at 1 µM
Sequence of Ribosomal protein S6 kinase alpha-4 (Homo sapiens) (O75676 whole entry, looked up): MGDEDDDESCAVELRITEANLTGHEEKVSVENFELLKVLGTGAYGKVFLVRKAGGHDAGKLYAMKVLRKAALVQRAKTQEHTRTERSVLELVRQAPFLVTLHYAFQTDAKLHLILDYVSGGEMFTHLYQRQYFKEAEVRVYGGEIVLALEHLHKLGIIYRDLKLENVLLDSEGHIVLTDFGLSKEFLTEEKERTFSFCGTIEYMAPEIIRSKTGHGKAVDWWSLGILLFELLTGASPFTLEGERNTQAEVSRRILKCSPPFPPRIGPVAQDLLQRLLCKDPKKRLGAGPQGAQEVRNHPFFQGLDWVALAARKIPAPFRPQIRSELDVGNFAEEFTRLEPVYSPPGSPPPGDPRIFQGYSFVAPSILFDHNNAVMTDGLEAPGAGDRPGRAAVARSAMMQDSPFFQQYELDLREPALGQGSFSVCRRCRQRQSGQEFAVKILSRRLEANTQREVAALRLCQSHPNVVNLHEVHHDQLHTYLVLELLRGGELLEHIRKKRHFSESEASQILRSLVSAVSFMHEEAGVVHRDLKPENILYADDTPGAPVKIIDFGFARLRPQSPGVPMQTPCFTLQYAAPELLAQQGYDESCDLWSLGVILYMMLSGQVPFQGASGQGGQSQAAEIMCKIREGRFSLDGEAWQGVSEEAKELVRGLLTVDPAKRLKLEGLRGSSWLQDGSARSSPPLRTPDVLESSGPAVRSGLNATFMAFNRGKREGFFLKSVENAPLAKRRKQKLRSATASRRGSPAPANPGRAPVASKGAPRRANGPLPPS

[8] = test system: Epidermal growth factor receptor (Homo sapiens), P00533 [UNDEFINED MUTATION]; assay: Selectivity interaction (KinomeScan (DiscoverX)) EUB0001619a EGFR; conditions: at 1 µM
Sequence of Epidermal growth factor receptor (Homo sapiens), P00533 [UNDEFINED MUTATION] (P00533 whole entry, looked up, change not shown): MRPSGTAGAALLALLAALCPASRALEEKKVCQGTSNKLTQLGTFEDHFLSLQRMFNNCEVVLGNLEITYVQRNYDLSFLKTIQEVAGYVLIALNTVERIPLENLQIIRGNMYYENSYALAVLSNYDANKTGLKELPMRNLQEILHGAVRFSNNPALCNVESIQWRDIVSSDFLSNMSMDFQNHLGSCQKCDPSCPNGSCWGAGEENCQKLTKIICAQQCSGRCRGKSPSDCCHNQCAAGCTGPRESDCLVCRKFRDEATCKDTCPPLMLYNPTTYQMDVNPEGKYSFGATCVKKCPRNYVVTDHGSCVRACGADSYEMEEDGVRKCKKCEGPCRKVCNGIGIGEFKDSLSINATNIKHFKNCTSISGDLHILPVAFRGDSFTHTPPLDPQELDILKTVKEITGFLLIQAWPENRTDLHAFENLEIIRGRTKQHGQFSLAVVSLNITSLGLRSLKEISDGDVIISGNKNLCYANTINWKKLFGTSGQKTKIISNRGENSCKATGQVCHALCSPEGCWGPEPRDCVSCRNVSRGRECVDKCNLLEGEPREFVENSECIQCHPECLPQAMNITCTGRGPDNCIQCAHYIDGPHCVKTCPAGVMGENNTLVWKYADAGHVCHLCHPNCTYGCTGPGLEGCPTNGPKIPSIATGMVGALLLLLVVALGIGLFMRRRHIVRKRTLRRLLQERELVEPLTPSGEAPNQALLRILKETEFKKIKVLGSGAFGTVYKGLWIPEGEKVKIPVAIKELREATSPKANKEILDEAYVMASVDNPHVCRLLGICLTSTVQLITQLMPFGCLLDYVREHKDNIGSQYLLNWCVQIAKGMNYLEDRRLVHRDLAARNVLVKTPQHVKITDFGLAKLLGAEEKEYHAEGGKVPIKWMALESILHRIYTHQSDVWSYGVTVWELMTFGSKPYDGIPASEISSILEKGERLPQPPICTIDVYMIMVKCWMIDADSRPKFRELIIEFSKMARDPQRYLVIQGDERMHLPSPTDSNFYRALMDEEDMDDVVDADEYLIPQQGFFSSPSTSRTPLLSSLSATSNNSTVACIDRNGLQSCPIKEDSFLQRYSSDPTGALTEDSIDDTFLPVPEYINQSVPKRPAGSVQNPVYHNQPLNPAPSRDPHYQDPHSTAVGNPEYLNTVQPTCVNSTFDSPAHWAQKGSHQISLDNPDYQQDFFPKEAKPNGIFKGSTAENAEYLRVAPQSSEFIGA

[9] = target: T3, Beta-adrenergic receptor kinase 1 (Homo sapiens) (UniProt P25098); assay: Selectivity interaction (ActivX KiNativ screen (ex vivo kinase selectivity in human PBMCs)) EUB0001619a ADRBK1; type: cell-based; conditions: PBMC, at 1 µM
T3 sequence (whole entry): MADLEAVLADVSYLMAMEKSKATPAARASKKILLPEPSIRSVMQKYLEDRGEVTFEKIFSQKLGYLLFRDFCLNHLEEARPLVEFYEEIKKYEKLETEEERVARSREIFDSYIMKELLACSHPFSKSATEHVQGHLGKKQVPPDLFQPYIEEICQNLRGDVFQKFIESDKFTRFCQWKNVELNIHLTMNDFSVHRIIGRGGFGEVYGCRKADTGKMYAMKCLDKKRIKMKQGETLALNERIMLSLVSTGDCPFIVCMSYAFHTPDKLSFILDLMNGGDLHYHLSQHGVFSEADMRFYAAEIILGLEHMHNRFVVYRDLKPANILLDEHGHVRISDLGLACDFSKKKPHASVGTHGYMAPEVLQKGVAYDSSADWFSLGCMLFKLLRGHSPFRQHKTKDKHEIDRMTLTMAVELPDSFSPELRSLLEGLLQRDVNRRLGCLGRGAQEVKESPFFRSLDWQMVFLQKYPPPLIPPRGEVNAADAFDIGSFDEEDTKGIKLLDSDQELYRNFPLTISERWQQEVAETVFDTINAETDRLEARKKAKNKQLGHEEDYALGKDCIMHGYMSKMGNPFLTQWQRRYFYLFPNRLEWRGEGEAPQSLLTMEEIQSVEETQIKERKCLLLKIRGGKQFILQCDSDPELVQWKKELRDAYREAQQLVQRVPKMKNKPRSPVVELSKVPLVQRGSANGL

Sequence of Mitogen-activated protein kinase 4 (Homo sapiens) (P31152 whole entry): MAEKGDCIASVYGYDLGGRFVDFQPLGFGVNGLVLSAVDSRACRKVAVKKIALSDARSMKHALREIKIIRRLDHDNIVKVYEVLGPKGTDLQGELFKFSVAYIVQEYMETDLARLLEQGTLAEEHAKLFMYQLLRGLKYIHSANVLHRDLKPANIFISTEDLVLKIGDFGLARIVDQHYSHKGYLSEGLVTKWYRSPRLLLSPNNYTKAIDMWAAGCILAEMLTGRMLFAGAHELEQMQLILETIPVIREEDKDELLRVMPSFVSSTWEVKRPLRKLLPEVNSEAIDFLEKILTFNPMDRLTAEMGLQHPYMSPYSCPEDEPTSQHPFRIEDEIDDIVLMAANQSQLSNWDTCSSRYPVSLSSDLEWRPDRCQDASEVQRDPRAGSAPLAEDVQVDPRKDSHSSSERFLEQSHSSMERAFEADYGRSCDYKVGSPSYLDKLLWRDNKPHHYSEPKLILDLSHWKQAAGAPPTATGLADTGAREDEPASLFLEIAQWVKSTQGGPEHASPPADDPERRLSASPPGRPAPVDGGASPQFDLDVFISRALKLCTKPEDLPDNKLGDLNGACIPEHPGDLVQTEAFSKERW

CN(C)CCOc1ccc(-c2nc(-c3ccncc3)c(-c3ccc4c(c3)CC/C4=N\O)[nH]2)cc1
% of control [1]: 100%

Cn1cc(-n2cnc3c(NCc4nc5cc(Cl)c(Cl)cc5[nH]4)nc(N4CCOCC4)nc32)cn1
% of control [2]: 16.9%

CC[C@@H]1[C@H](F)C(=O)N[C@@H]1COc1nccc2cc(C(N)=O)c(OC)cc12 [ZIMLOVISERTIB]
% of inhibition [3]: -15.7%

COc1cc(Nc2nc(C)cc(-c3cnn4nc(OC)ccc34)n2)cc(C(F)(F)F)c1
% of control [4]: 85%

C=CC(=O)Nc1cc(-n2c(=O)ccc3cnc4ccc(-c5ccc(NS(C)(=O)=O)cc5)cc4c32)ccc1C
% of control ([5]; at 1 µM): 100%
% of control ([5]; at 10 µM): 100%

O[C@H]1CC[C@H](Nc2ncc3nc(Nc4c(F)cc(F)cc4F)n([C@H]4CCOC4)c3n2)CC1
% of control [6]: 90%

CC(=O)c1cc(-c2ccccc2OCC2CC2)c2ncccn12
% of control (Vasopressin V2 receptor): 109%

CN(C)C/C=C/C(=O)Nc1ccc(C(=O)N2CCCC(Nc3ncc(Cl)c(-c4c[nH]c5ccccc45)n3)C2)cc1 (stereo unspecified)
% of control [7]: 93%

N#Cc1cccc(-c2c[nH]c3ncnc(N4CCOCC4)c23)c1
% of control [8]: 82%
% of inhibition [9]: -5%
